Data published in paper PMC5545217 (Nature Communications, 2017).
Entries after “also recorded” stand apart in the source; their conditions may differ.

Target: D216V ATP-PRT (Mycobacterium tuberculosis, UniProt P9WMN1, D216V)
Type: biochemical

Row | Structure (SMILES) | Inhibition of D216V ATP-PRT | Activation of D216V ATP-PRT
1 | N[C@@H](Cc1c[nH]cn1)C(=O)O [L-His, L-histidine, reference compound] | no longer inhibited by L-His; also recorded: did not change D216 V activity | –
2 | N[C@@H](Cc1cccs1)C(=O)O [TIH, 3-(2-thienyl)-L-alanine] | – | still activated by TIH
